Assays:
[1] = FRAP assay for the antioxidant capacity; design: key to FRAP: slope of concentration-absorbance line divided by Trolox slope; conditions: for FRAP: stock in THF, acetate buffer pH 3.0, 37 °C, 15 min, ratio of slopes to trolox (melatonin in EtOH)
How it was run: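 Fe^3+→Fe^2+ reduction by antioxidants (THF stocks) in FRAP reagent (FeCl3/TPTZ, 300 mM acetate buffer pH 3.0), 15 min at 37 °C in the dark. Absorbance at 600 nm measured in triplicate at 0-17.5 μM final. FRAP value = slope of absorbance-concentration line divided by Trolox slope.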

[2] = Hydrodynamic diameter and colloidal stability of aggregates by dynamic light scattering; type: physicochemical; conditions: for mean size (hydrodynamic diameter) / zeta potential: 37 °C; for PDI: sd^2/mean size^2
How it was run: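 Hydrodynamic diameter (number-weighted; PDI as sd^2/mean size^2) and zeta potential were measured by DLS at 173° scattering angle. Samples, 0.3125–5 µM DMSO solutions diluted into PBS, were examined after 6 min incubation at 37 °C.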

[3] = Water dispersibility; type: physicochemical; conditions: distilled water, sonication
Method: About 2 mg of the examined substance was dispersed in 40 mL of distilled water and the suspension was sonicated for 2 min. The addition of water was continued with 10 mL portions, after each portion the mixture was sonicated for 2 min. This process was continued till a homogenous solution was observed by naked eye. Then, the solution was let to stand for an hour to inspect any precipitate formation, but no changes occurred in any of the cases.

[4] = Study of aggregation by UV-Vis spectrophotometry; type: physicochemical; conditions: for change of UV spectrum with increasing ratio of PBS: starting from THF solutions
How it was run: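 Conjugates dissolved in THF and diluted with THF or THF-PBS mixtures (1:1, 1:3) at identical carotenoid concentration; separately, 2.5∙10−4 M DMSO stocks added to PBS to final 0.3125–5 μM carotenoid. UV-Vis spectra recorded to follow band shifts and fine-structure changes; DMSO-PBS solutions also examined by DLS.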

[5] = 0.3125 μM in PBS from DMSO stock
[6] = 0.625 μM in PBS from DMSO stock

Row | mean size (hydrodynamic diameter) [2, 5] | zeta potential [2, 5] | PDI ([2]; 0.3125 μM in PBS) | mean size (hydrodynamic diameter) [2, 6] | zeta potential [2, 6] | PDI ([2]; 0.625 μM in PBS) | mean size (hydrodynamic diameter) ([2]; 1.25 μM in PBS from DMSO stock) | zeta potential ([2]; 1.25 μM in PBS from DMSO stock) | PDI ([2]; 1.25 μM in PBS) | mean size (hydrodynamic diameter) ([2]; 2.5 μM in PBS from DMSO stock) | zeta potential ([2]; 2.5 μM in PBS from DMSO stock) | PDI ([2]; 2.5 μM in PBS) | mean size (hydrodynamic diameter) ([2]; 3.75 μM in PBS from DMSO stock) | zeta potential ([2]; 3.75 μM in PBS from DMSO stock) | PDI ([2]; 3.75 μM in PBS) | mean size (hydrodynamic diameter) ([2]; 5 μM in PBS from DMSO stock) | zeta potential ([2]; 5 μM in PBS from DMSO stock) | PDI ([2]; 5 μM in PBS) | Water Dispersibility [3] | Compound | FRAP [1] | also measured
1 | 303.50 nm | −8.2 mV | 0.0137 | 395.10 nm | −10.2 mV | 0.0455 | 221.50 nm | −17.7 mV | 0.0218 | 26.74 nm | −30.5 mV | 0.0206 | 152.60 nm | −12.3 mV | 0.0268 | 144.20 nm | −27.5 mV | 0.0204 | 1.5 mg/100 mL | CC1=C(/C=C/C(C)=C/C=C/C(C)=C/C=C/C=C(C)/C=C/C=C(\C)COC(=O)CCC(=O)O)C(C)(C)CCC1 [Compound 6, 8′-Apo-β-carotenol succinate] | 0.276 | FRAP value relative to the succinates of the other carotenoids ([1]; acetate buffer pH 3.0): 1.5–2 times; change of UV spectrum with increasing ratio of PBS [4]: did not cause much change
2 | 1050.00 nm | 27.5 mV | 0.0407 | 429.30 nm | 23.4 mV | 0.0162 | 544.50 nm | 21.1 mV | 0.0294 | 195.60 nm | 17.9 mV | 0.0202 | 44.78 nm | 20.0 mV | 0.0267 | 238.20 nm | 20.1 mV | 0.0270 | 1.3 mg/100 mL | CC1=C(/C=C/C(C)=C/C=C/C(C)=C/C=C/C=C(C)/C=C/C=C(C)/C=C/C2=C(C)C[C@@H](OC(=O)CCC(=O)O)CC2(C)C)C(C)(C)C[C@H](OC(=O)CCC(=O)O)C1 [Compound 7, Zeaxanthin bissuccinate] | 0.155 | change of UV spectrum with increasing ratio of PBS [4]: did not cause much change

Row | Compound | mean size (hydrodynamic diameter) [2, 5] | zeta potential [2, 5] | PDI ([2]; 0.3125 μM in PBS) | mean size (hydrodynamic diameter) [2, 6] | zeta potential [2, 6] | PDI ([2]; 0.625 μM in PBS) | mean size (hydrodynamic diameter) ([2]; 1.25 μM in PBS from DMSO stock) | zeta potential ([2]; 1.25 μM in PBS from DMSO stock) | PDI ([2]; 1.25 μM in PBS) | mean size (hydrodynamic diameter) ([2]; 2.5 μM in PBS from DMSO stock) | zeta potential ([2]; 2.5 μM in PBS from DMSO stock) | PDI ([2]; 2.5 μM in PBS) | mean size (hydrodynamic diameter) ([2]; 3.75 μM in PBS from DMSO stock) | zeta potential ([2]; 3.75 μM in PBS from DMSO stock) | PDI ([2]; 3.75 μM in PBS) | mean size (hydrodynamic diameter) ([2]; 5 μM in PBS from DMSO stock) | zeta potential ([2]; 5 μM in PBS from DMSO stock) | PDI ([2]; 5 μM in PBS) | Water Dispersibility [3] | FRAP [1] | also measured
3 | CC1=C(/C=C/C(C)=C/C=C/C(C)=C/C=C/C=C(C)/C=C/C=C(C)/C=C/C2=C(C)C[C@@H](OC(=O)CCC(=O)O)CC2(C)C)C(C)(C)CCC1 [Compound 8, β-Cryptoxanthin succinate] | 11.04 nm | 34.1 mV | 0.0168 | 25.68 nm | 27.5 mV | 0.0307 | 31.94 nm | 21 mV | 0.0723 | 34.03 nm | 17.6 mV | 0.0360 | 468.90 nm | 2.55 mV | 0.0131 | 14.19 nm | −0.01 mV | 0.0339 | less than 0.5 mg/100 mL | 0.181 | type of aggregates formed ([4]; from THF:aqueous solutions): J-type (head-to-tail) aggregates; change of UV spectrum with increasing ratio of PBS [4]: bathochromic shift

— article PMC9369794 (Molecules, 2022)
